“And” between values parts separate entries of the source, which are not always exact repeats. Equal values may be shown once.
System: receptors coupled to Gi proteins expressed on osteoblasts
Experiment: Cellular Dielectric Spectroscopy (CDS, CELLKEY) response to Gi-coupled receptor ligands in osteoblasts from control and AIS subjects
Assay type: cell-based, human
Parameters: % of control / % of control signal, Group 1, min diff. / % of control signal, Group 2, min diff. / % of control signal, Group 3, min diff.: concentration or dose not given beside the values; dZiec value / Absolute dZiec, control value of max diff. (maximal control value): unit not given here
Settings: for dZiec value / Absolute dZiec, control value of max diff. (maximal control value) / Absolute dZiec, control value of min diff. (minimal control value) / Absolute dZiec, Group 1, max diff. (group value) / Absolute dZiec, Group 1, min diff. (group value) / Absolute dZiec, Group 2, max diff. (group value) / Absolute dZiec, Group 2, min diff. (group value) / Absolute dZiec, Group 3, max diff. (group value) / Absolute dZiec, Group 3, min diff. (group value): 300 μM ligand; for dZiec value: n1, n2 of Exper. 1-3; for Absolute dZiec, control value of max diff. (maximal control value) / Absolute dZiec, control value of min diff. (minimal control value): osteoblasts of control subjects; for Absolute dZiec, control value of max diff. (maximal control value) / Absolute dZiec, control value of min diff. (minimal control value) / Absolute dZiec, Group 1, max diff. (group value) / Absolute dZiec, Group 1, min diff. (group value) / Absolute dZiec, Group 2, max diff. (group value) / Absolute dZiec, Group 2, min diff. (group value) / Absolute dZiec, Group 3, max diff. (group value) / Absolute dZiec, Group 3, min diff. (group value): from FIGS. 11A-11F; for Absolute dZiec, Group 1, max diff. (group value) / Absolute dZiec, Group 1, min diff. (group value) / % of control signal, Group 1, max diff. / % of control signal, Group 1, min diff. / Absolute dZiec, Group 2, max diff. (group value) / Absolute dZiec, Group 2, min diff. (group value) / % of control signal, Group 2, max diff. / % of control signal, Group 2, min diff. / Absolute dZiec, Group 3, max diff. (group value) / Absolute dZiec, Group 3, min diff. (group value) / % of control signal, Group 3, max diff. / % of control signal, Group 3, min diff.: osteoblasts; for Absolute dZiec, Group 1, max diff. (group value): AIS Group 1 value of max diff.; for Absolute dZiec, Group 1, min diff. (group value): AIS Group 1 value of min diff.; for % of control signal, Group 1, max diff.: AIS Group 1 vs maximal control value; for % of control signal, Group 1, min diff.: AIS Group 1 vs minimal control value; for Absolute dZiec, Group 2, max diff. (group value): AIS Group 2 value of max diff.; for Absolute dZiec, Group 2, min diff. (group value): AIS Group 2 value of min diff.; for % of control signal, Group 2, max diff.: AIS Group 2 vs maximal control value; for % of control signal, Group 2, min diff.: AIS Group 2 vs minimal control value; for Absolute dZiec, Group 3, max diff. (group value): AIS Group 3 value of max diff.; for Absolute dZiec, Group 3, min diff. (group value): AIS Group 3 value of min diff.; for % of control signal, Group 3, max diff.: AIS Group 3 vs maximal control value; for % of control signal, Group 3, min diff.: AIS Group 3 vs minimal control value
Text: Bone specimens were obtained intraoperatively from vertebras (varying from T3 to L4 according to the surgical procedure performed), while with trauma cases used as non-scoliotic controls bone specimens were obtained from other anatomical sites (tibia or femur, and in one case from an iliac crest biopsy). Osteoblasts and myoblasts isolated as previously described (Moreau A, Wang D S, Forget S et al. Melatonin Signaling Dysfunction in Adolescent Idiopathic Scoliosis. Spine 2004; 29:1772-81; Azeddine et al., 2007 Molecular determinants of melatonin signaling dysfunction in adolescent idiopathic scoliosis. Clin Orthop Relat Res. 2007, 462:45-52), were cultured at 37° C./5% CO2 in MEM supplemented with 10% fetal bovine serum (FBS) and 100 μg/mL streptomycin. Prior to the experiment, cells were seeded into the CELLKEY™ label-free cellular analysis system standard 96-well plates at a density of 5×10^4/well and grown for 24 h and incubated in standard conditions (37° C./5% CO2). In some plates, Pertussis toxin (100 ng/mL, Sigma, Oakville, ON, Canada) treatment was performed 16 h before the CDS assay. Following overnight incubation, plates were placed onto the CELLKEY™ label-free cellular analysis system and growth medium was exchanged to assay buffer (Hanks, Balanced Salt Solution containing 20 mM HEPES and 0.1% BSA) before starting the experiment. Cells were then allowed to equilibrate at room temperature for 30 min. Pre-addition measurements were made for 5 min to obtain a baseline reading. […] The quick update rate (2 s.) of the CELLKEY™ label-free cellular analysis system allows detection of these immediate changes in impedance. Impedance measurements were collected for 10 min to 15 min at 28° C. after ligand addition to monitor cellular responses to ligand interaction and to generate CELLKEY™ label-free cellular analysis system response profiles that are characteristic of the signaling mechanisms used.
The response induced by the various ligands to their receptors was measured by cellular dielectric spectroscopy (CDS) using the CELLKEY™ label-free cellular analysis technology. (MDS Sciex, San Francisco, Calif., USA). The CELLKEY™ label-free cellular analysis system integrates a proprietary impedance measurement system, custom 96-well microliter plate, onboard 96-well fluidics, and environment control and custom acquisition and analysis software in a full solution package (MDS Sciex) that is compatible with commercially available robotic platforms. Small voltage at 24 frequencies, from 1 KHz to 10 MHz, is applied to a monolayer of cells settled in a 96-well microplate containing electrodes at the bottom, and the resultant current is measured at an update rate of 2 s. […] Onboard fluid additions and exchanges are handled by 96-well head fluid delivery device with a range of 5-500 μL. In addition to the cell plate location, the CELLKEY™ label-free cellular analysis system includes two additional stations for 96- or 384-well compound plates. All aspects of assay set up, execution, and data acquisition and analysis are controlled by CELLKEY™ label-free cellular analysis software.
The minimal (min) and maximal (max) values represent the mean of three independent measurements performed in duplicate (six values in total) for a given patient/control subject. […] Duplicates (n1 and n2) of three independent experiments are presented.

[1] = osteoblasts of AIS#1020 (Group 3) relative to CTR#60
[2] = osteoblasts of AIS#1020 (Group 3)
[3] = osteoblasts of AIS#1198 (Group 3 in Table II) relative to CTR#69
[4] = osteoblasts of AIS#1198 (Group 3 in Table II)
[5] = osteoblasts of AIS#1468 (Group 3) relative to CTR#61
[6] = osteoblasts of AIS#1468 (Group 3)
[7] = osteoblasts of AIS#1474 (Group 1) relative to CTR#60
[8] = osteoblasts of AIS#1474 (Group 1)
[9] = osteoblasts of AIS#1488 (Group 1) relative to CTR#69
[10] = osteoblasts of AIS#1488 (Group 1)
[11] = osteoblasts of AIS#1513 (Group 3) relative to CTR#61
[12] = osteoblasts of AIS#1513 (Group 3)
[13] = osteoblasts of AIS#1550 (Group 2) relative to CTR#60
[14] = osteoblasts of AIS#1550 (Group 2)

SMILES	% of control [1]	dZiec value [2]	% of control [3]	dZiec value [4]	% of control [5]	dZiec value [6]	% of control [7]	dZiec value [8]	% of control [9]	dZiec value [10]	% of control [11]	dZiec value [12]	% of control [13]	dZiec value [14]	dZiec value (osteoblasts of control CTR#60)	dZiec value (osteoblasts of control CTR#61)	dZiec value (osteoblasts of control CTR#69)	Absolute dZiec, control value of max diff. (maximal control value)	Absolute dZiec, control value of min diff. (minimal control value)	Absolute dZiec, Group 1, max diff. (group value)	further results
CNC(=O)[C@H]1O[C@@H](n2cnc3c(NCc4cccc(I)c4)ncnc32)[C@H](O)[C@@H]1O [IB-meca, 1-Deoxy-1-[6-[[(3-iodophenyl)methyl]amino]-9H-purin-9-yl]-N-methyl-β-D-ribofuranuronamide]	50.1% and 47.6% and 50.6% and 47.2% and 47.5% and 50.0%	74.19 and 76.19 and 87.32 and 85.32 and 76.76 and 84.76	41.1% and 45.4% and 47.8% and 50.0% and 45.1% and 47.6%	63.58 and 75.58 and 85.63 and 93.63 and 75.61 and 83.61	77.6% and 79.5% and 78.4% and 78.2% and 79.4%	98.77 and 110.77 and 121.90 and 129.90 and 111.34 and 119.34	21.1% and 18.9% and 21.2% and 20.8% and 18.5% and 22.4%	31.25 and 30.25 and 36.61 and 37.61 and 29.93 and 37.93	25.5% and 24.8% and 26.8% and 24.5% and 23.6% and 27.1%	39.34 and 41.34 and 47.91 and 45.91 and 39.63 and 47.63	61.6% and 64.9% and 67.0% and 68.6% and 64.8% and 66.7%	78.36 and 90.36 and 104.12 and 112.12 and 92.24 and 100.24	44.2% and 42.1% and 47.0% and 43.8% and 42.9% and 45.6%	65.47 and 67.47 and 81.23 and 79.23 and 69.35 and 77.35	148.22/— and 160.22/— and 172.73/— and 180.73/— and 161.48/— and 169.48/—	127.27/— and 139.27/— and 155.44/— and 163.44/— and 142.36/— and 150.36/—	154.52/— and 166.52/— and 179.10/— and 187.10/— and 167.81/— and 175.81/—	172	132	20	% of control (osteoblasts of AIS#1385 (Group 2) relative to CTR#69): 47.6% and 45.3% and 47.5% and 44.4% and 44.9% and 47.4%; dZiec value (osteoblasts of AIS#1385 (Group 2)): 73.49 and 75.49 and 85.15 and 83.15 and 75.32 and 83.32; Absolute dZiec, Group 1, min diff. (group value): 43; % of control signal, Group 1, max diff.: 12%; % of control signal, Group 1, min diff.: 33%; Absolute dZiec, Group 2, max diff. (group value): 73; Absolute dZiec, Group 2, min diff. (group value): 80; % of control signal, Group 2, max diff.: 42%; % of control signal, Group 2, min diff.: 61%; Absolute dZiec, Group 3, max diff. (group value): 98; Absolute dZiec, Group 3, min diff. (group value): 115; % of control signal, Group 3, max diff.: 55%; % of control signal, Group 3, min diff.: 87%
Brc1c(NC2=NCCN2)ccc2nccnc12 [UK14304, 5-bromo-N-(4,5-dihydro-1H-imidazol-2-yl)-6-quinoxalinamine]	42.4% and 37.2% and 34.7% and 40.5% and 37.5% and 41.7%	42.74 and 39.74 and 43.5 and 51.5 and 41.62 and 49.62	42.6% and 43.7% and 57.1% and 54.0% and 49.1% and 58.9%	44.16 and 46.16 and 56.22 and 54.22 and 46.19 and 54.19	72.7% and 71.7% and 76.2% and 68.8% and 73.0%	65.72 and 67.72 and 77.77 and 75.77 and 67.75 and 75.75	20.4% and 19.3% and 18.6% and 19.1% and 17.5% and 16.4%	20.6 and 23.35 and 24.35 and 19.48	25.3% and 24.2% and 26.3% and 18.8% and 28.2% and 28.5%	26.24 and 25.55 and 25.92 and 18.92 and 26.55	64.7% and 64.0% and 70.1% and 63.2% and 65.8% and 67.8%	58.45 and 60.45 and 71.58 and 69.58 and 61.02 and 69.02	53.2% and 42.7% and 45.3% and 35.2% and 41.6% and 45.5%	53.62 and 45.62 and 56.75 and 44.75 and 46.19 and 54.19	100.78/— and 106.78/— and 125.27/— and 127.27/— and 111.02/— and 119.02/—	90.39/— and 94.39/— and 102.1/— and 110.1/— and 92.75/— and 101.75/—	103.67/— and 105.67/— and 98.38/— and 100.38/— and 94.02/— and 92.02/—	115	98	21	% of control (osteoblasts of AIS#1549 (Group 1) relative to CTR#61): 30.0% and 30.8% and 33.7% and 33.1% and 35.3% and 36.1%; dZiec value (osteoblasts of AIS#1549 (Group 1)): 27.08 and 29.08 and 34.45 and 36.45 and 32.76 and 36.76; Absolute dZiec, Group 1, min diff. (group value): 32; % of control signal, Group 1, max diff.: 18%; % of control signal, Group 1, min diff.: 33%; Absolute dZiec, Group 2, max diff. (group value): 45; Absolute dZiec, Group 2, min diff. (group value): 50; % of control signal, Group 2, max diff.: 39%; % of control signal, Group 2, min diff.: 51%; Absolute dZiec, Group 3, max diff. (group value): 60; Absolute dZiec, Group 3, min diff. (group value): 71; % of control signal, Group 3, max diff.: 52%; % of control signal, Group 3, min diff.: 72%

Reference: patent US10620222B2, “Electrified compositions for determining the risk of developing adolescent idiopathic scoliosis through the use of GI protein receptor” (CHU Sainte-Justine, priority 2008, dated 2020)
